Tests used:
[1] = biological target: Serine/threonine-protein kinase mTOR (Homo sapiens, UniProt P42345); experiment: Inhibition of mTOR
LNCaP = experiment: Cytotoxicity against human LNCAP cells; format: functional, cell-based
[2] = Selectivity index, ratio of IC50 for PI3Kalpha to IC50 for mTOR
[3] = biological target: Phosphatidylinositol 4,5-bisphosphate 3-kinase catalytic subunit alpha isoform (Homo sapiens, UniProt P42336); experiment: Inhibition of PI3Kalpha
Sequence of Phosphatidylinositol 4,5-bisphosphate 3-kinase catalytic subunit alpha isoform (P42336 whole entry, canonical isoform): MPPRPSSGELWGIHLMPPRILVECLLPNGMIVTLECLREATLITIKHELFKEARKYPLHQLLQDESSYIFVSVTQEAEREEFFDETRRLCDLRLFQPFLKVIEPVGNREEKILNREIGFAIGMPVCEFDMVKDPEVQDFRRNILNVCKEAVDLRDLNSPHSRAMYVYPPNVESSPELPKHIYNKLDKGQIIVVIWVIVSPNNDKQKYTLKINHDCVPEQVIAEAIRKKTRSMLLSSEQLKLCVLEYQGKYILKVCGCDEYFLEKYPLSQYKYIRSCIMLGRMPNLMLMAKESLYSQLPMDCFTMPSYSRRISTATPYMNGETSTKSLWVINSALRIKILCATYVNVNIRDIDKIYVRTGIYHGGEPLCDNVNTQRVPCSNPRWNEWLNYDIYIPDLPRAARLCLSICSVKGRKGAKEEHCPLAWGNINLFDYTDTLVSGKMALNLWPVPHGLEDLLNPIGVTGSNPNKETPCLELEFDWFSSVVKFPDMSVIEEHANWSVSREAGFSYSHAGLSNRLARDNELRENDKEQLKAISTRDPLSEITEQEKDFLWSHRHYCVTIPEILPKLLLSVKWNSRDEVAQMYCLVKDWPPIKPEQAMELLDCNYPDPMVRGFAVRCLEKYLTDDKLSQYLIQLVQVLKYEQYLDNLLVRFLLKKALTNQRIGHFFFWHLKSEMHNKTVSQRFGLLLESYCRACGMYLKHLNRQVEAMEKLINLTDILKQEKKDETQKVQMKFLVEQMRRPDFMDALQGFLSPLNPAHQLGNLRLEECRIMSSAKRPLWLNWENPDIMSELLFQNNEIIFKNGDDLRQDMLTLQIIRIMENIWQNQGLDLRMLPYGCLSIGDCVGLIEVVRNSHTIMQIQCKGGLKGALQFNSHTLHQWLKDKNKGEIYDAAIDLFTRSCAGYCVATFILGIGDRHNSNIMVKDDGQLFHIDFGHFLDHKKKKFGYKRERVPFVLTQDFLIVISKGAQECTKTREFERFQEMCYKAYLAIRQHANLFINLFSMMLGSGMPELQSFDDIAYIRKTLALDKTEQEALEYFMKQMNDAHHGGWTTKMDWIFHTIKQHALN

SMILES: Oc1ccc(-c2nc(N3CC4CCC(C3)O4)c3sccc3n2)cc1
- IC50 [1]: 32 nM

SMILES: O=C(NCCF)Nc1ccc(-c2nc(N3CC4CCC(C3)O4)c3sccc3n2)cc1
- IC50 [1]: 0.7 nM
- IC50 (LNCaP): 87 nM
- Ratio IC50 [2]: 1110

SMILES: CNC(=O)Nc1ccc(-c2nc(N3CC4CCC(C3)O4)c3sc(CN4CCN(C)CC4)cc3n2)cc1
- IC50 [1]: 20 nM

SMILES: CS(=O)(=O)N1CCN(Cc2cc3nc(-c4ccc(NC(=O)Nc5ccncc5)cc4)nc(N4CC5CCC(C4)O5)c3s2)CC1
- IC50 [3]: 8.3 nM
- IC50 (LNCaP): 120 nM
- Ratio IC50 [2]: 19

SMILES: CN1CCN(Cc2cc3nc(-c4ccc(NC(=O)Nc5ccncc5)cc4)nc(N4CC5CCC(C4)O5)c3s2)CC1
- IC50 (LNCaP): 200 nM
- Ratio IC50 [2]: 23

SMILES: CN1CCN(Cc2cc3nc(-c4ccc(NC(=O)NC5CC5)cc4)nc(N4CC5CCC(C4)O5)c3s2)CC1
- IC50 [1]: 16 nM
- IC50 (LNCaP): 400 nM
- Ratio IC50 [2]: 56

SMILES: O=C(Nc1ccccc1)Nc1ccc(-c2nc(N3CC4CCC(C3)O4)c3sccc3n2)cc1
- IC50 [1]: 1.25 nM

SMILES: Nc1ccc(-c2nc(N3CC4CCC(C3)O4)c3sccc3n2)cn1
- IC50 [1]: 35 nM
- IC50 (LNCaP): 1250 nM
- Ratio IC50 [2]: 51

SMILES: O=C(Nc1ccncc1)Nc1ccc(-c2nc(N3CC4CCC(C3)O4)c3sccc3n2)cc1
- IC50 [1]: 0.44 nM
- IC50 (LNCaP): 10 nM
- Ratio IC50 [2]: 182

SMILES: CS(=O)(=O)N1CCN(Cc2cc3nc(-c4ccc(NC(=O)NC5CC5)cc4)nc(N4CC5CCC(C4)O5)c3s2)CC1
- IC50 [1]: 1 nM
- IC50 (LNCaP): 32 nM
- Ratio IC50 [2]: 176

SMILES: O=C(NCCO)Nc1ccc(-c2nc(N3CC4CCC(C3)O4)c3sccc3n2)cc1
- IC50 [1]: 0.34 nM

SMILES: O=C(Nc1ccc(-c2nc(N3CC4CCC(C3)O4)c3sccc3n2)cc1)Nc1cccnc1
- IC50 [1]: 0.29 nM
- IC50 (LNCaP): 27 nM
- Ratio IC50 [2]: 410

SMILES: Oc1cccc(-c2nc(N3CCOCC3)c3sccc3n2)c1
- IC50 [3]: 41 nM
- IC50 [1]: 49 nM
- IC50 (LNCaP): 1300 nM
- Ratio IC50 [2]: 0.9

SMILES: O=C(Nc1ccc(-c2nc(N3CC4CCC(C3)O4)c3sccc3n2)cc1)NC1CC1
- IC50 [1]: 0.68 nM
- IC50 (LNCaP): 40 nM
- Ratio IC50 [2]: 2010

SMILES: Nc1ccc(-c2nc(N3CC4CCC(C3)O4)c3sccc3n2)cc1
- IC50 [3]: > 10000 nM

SMILES: CS(=O)(=O)N1CCN(Cc2cc3nc(-c4ccc(NC(=O)Nc5cccnc5)cc4)nc(N4CC5CCC(C4)O5)c3s2)CC1
- IC50 [1]: 0.6 nM

SMILES: CC(=O)Nc1ccc(-c2nc(N3CC4CCC(C3)O4)c3sccc3n2)cc1
- IC50 [1]: 26.5 nM
- IC50 (LNCaP): 1700 nM
- Ratio IC50 [2]: 165

SMILES: CNC(=O)Nc1ccc(-c2nc(N3CC4CCC(C3)O4)c3sccc3n2)cc1
- IC50 [1]: 0.9 nM
- IC50 (LNCaP): 85 nM
- Ratio IC50 [2]: 492

SMILES: CNC(=O)Nc1ccc(-c2nc(N3CC4CCC(C3)O4)c3sc(CN4CCN(S(C)(=O)=O)CC4)cc3n2)cc1
- IC50 (LNCaP): 120 nM
- Ratio IC50 [2]: 33

SMILES: CN1CCN(Cc2cc3nc(-c4ccc(NC(=O)Nc5cccnc5)cc4)nc(N4CC5CCC(C4)O5)c3s2)CC1
- IC50 (LNCaP): 148 nM
- Ratio IC50 [2]: 31

SMILES: c1cc2cc(-c3nc(N4CC5CCC(C4)O5)c4sccc4n3)ccc2[nH]1
- IC50 (LNCaP): 1350 nM
- Ratio IC50 [2]: 392

SMILES: COC(=O)Nc1ccc(-c2nc(N3CC4CCC(C3)O4)c3sccc3n2)cc1
- IC50 [1]: 11 nM
- IC50 (LNCaP): 1850 nM
- Ratio IC50 [2]: 549

SMILES: Oc1cccc(-c2nc(N3CC4CCC(C3)O4)c3sccc3n2)c1
- IC50 [1]: 58 nM

SMILES: Nc1ncc(-c2nc(N3CC4CCC(C3)O4)c3sccc3n2)cn1
- IC50 [1]: 57 nM
- IC50 (LNCaP): 1200 nM
- Ratio IC50 [2]: 4.4

SMILES: Nc1ncc(-c2nc(N3CCOCC3)c3sccc3n2)cn1
- IC50 [3]: 8.5 nM
- IC50 [1]: 61 nM
- IC50 (LNCaP): 680 nM
- Ratio IC50 [2]: 0.14

SMILES: CCNC(=O)Nc1ccc(-c2nc(N3CC4CCC(C3)O4)c3sccc3n2)cc1
- IC50 [1]: 0.7 nM

From ChEMBL document CHEMBL1153098, “Discovery of 2-arylthieno[3,2-d]pyrimidines containing 8-oxa-3-azabi-cyclo[3.2.1]octane in the 4-position as potent inhibitors of mTOR with selectivity over PI3K” (Bioorg Med Chem Lett, 2010)
